In patent US20200060276A1, “THIAZOLE COMPOUND AND HERBICIDE” (OAT Agrio Co., Ltd., priority 2017, published 2020):

Columns and labels:
Assay type in all cases: in vivo
[1] = system: Cyperus microiria; test: Test for Herbicidal Effect in Flooding Treatment (#1), CYMIC; conditions: flooding treatment at seeding, dose 2 kg/ha, visual observation on day 21
Procedure, shortened: (§1)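 Flooded soil in cups was seeded 24 h after flooding, then treated with compound in acetone diluted with Tween 80-containing water, dropped onto the water surface at 2 kg/ha. After growth in a glasshouse, growth inhibition was scored visually on day 21 on a 0 (<10%) to 5 (≥90% or complete withering) scale.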

[2] = system: Scirpus juncoides; test: Test for Herbicidal Effect in Flooding Treatment (#1), SCIJU; conditions: flooding treatment at seeding, dose 2 kg/ha, visual observation on day 21
Procedure, shortened: as §1

[3] = system: Echinochloa crus-galli (L.) P. Beauv. var. formosensis Ohwi; test: Test for Herbicidal Effect in Flooding Treatment (#2), ECHDG at 2-2.5 leaf stage; conditions: for ECHDG (2-2.5L) #2 herbicidal effect (growth inhibition grade): flooding treatment at 2-2.5 leaf stage, dose 0.2 kg/ha, visual observation on day 21
Procedure, shortened: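 Flooded muddy soil was seeded with the weed, and at 2–2.5 leaf stage compound in acetone/Tween 80 water was dropped on the water surface at 0.2 kg/ha. Plants were kept in a glasshouse and scored visually on day 21 from 0 (<10% growth inhibition) to 5 (≥90% or complete withering).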

[4] = system: Monochoria vaginalis; test: Test for Herbicidal Effect in Flooding Treatment (#1), MONVA; conditions: flooding treatment at seeding, dose 2 kg/ha, visual observation on day 21
Procedure, shortened: as §1

[5] = system: Echinochloa crus-galli (L.) P. Beauv. var. formosensis Ohwi; test: Test for Herbicidal Effect in Flooding Treatment (#1), ECHDG; conditions: flooding treatment at seeding, dose 2 kg/ha, visual observation on day 21
Procedure, shortened: as §1

SMILES | CYMIC #1 herbicidal effect (growth inhibition grade) [1] | SCIJU #1 herbicidal effect (growth inhibition grade) [2] | ECHDG (2-2.5L) #2 herbicidal effect (growth inhibition grade) [3] | MONVA #1 herbicidal effect (growth inhibition grade) [4] | ECHDG #1 herbicidal effect (growth inhibition grade) [5] | inhibition at 200 g/ha ([3]; Echinochloa crus-galli, 504 h, flooding treatment (#2), ECHDG at 2-2.5 leaf stage, dose of 0.2 kg/ha, day 21, visual observation, read-out: growth inhibition effect)
CCOc1cc(Cl)cc(CS(=O)(=O)c2ncc(Cl)s2)c1 [Compound 1C-78] | 5 (Growth inhibition effect is equal to or greater than 90%, or complete withering is achieved) | 5 (Growth inhibition effect is equal to or greater than 90%, or complete withering is achieved) | 5 (Growth inhibition effect is equal to or greater than 90%, or complete withering is achieved) | 5 (Growth inhibition effect is equal to or greater than 90%, or complete withering is achieved) | 5 (Growth inhibition effect is equal to or greater than 90%, or complete withering is achieved) | 
CCOc1c(F)cc(F)cc1CS(=O)(=O)c1ncc(Cl)s1 [Compound 1C-21] | 5 (Growth inhibition effect is equal to or greater than 90%, or complete withering is achieved) | 5 (Growth inhibition effect is equal to or greater than 90%, or complete withering is achieved) | 5 (Growth inhibition effect is equal to or greater than 90%, or complete withering is achieved) | 5 (Growth inhibition effect is equal to or greater than 90%, or complete withering is achieved) | 5 (Growth inhibition effect is equal to or greater than 90%, or complete withering is achieved) | ≥ 90%
COc1cccc(F)c1CS(=O)(=O)c1ncc(Cl)s1 [Compound 1C-5] | 5 (Growth inhibition effect is equal to or greater than 90%, or complete withering is achieved) | 5 (Growth inhibition effect is equal to or greater than 90%, or complete withering is achieved) | 5 (Growth inhibition effect is equal to or greater than 90%, or complete withering is achieved) | 5 (Growth inhibition effect is equal to or greater than 90%, or complete withering is achieved) | 5 (Growth inhibition effect is equal to or greater than 90%, or complete withering is achieved) | 
CCOc1c(F)cc(CS(=O)(=O)c2ncc(Cl)s2)cc1F [Compound 1C-104] | 5 (Growth inhibition effect is equal to or greater than 90%, or complete withering is achieved) | 5 (Growth inhibition effect is equal to or greater than 90%, or complete withering is achieved) | 1 (Growth inhibition effect is equal to or greater than 10%, and less than 30%) | 5 (Growth inhibition effect is equal to or greater than 90%, or complete withering is achieved) | 5 (Growth inhibition effect is equal to or greater than 90%, or complete withering is achieved) | 
CCOc1c(F)ccc(CS(=O)(=O)c2ncc(Cl)s2)c1F [Compound 1C-81] | 5 (Growth inhibition effect is equal to or greater than 90%, or complete withering is achieved) | 5 (Growth inhibition effect is equal to or greater than 90%, or complete withering is achieved) | 5 (Growth inhibition effect is equal to or greater than 90%, or complete withering is achieved) | 5 (Growth inhibition effect is equal to or greater than 90%, or complete withering is achieved) | 5 (Growth inhibition effect is equal to or greater than 90%, or complete withering is achieved) | 
COc1ccc(F)c(CS(=O)(=O)c2ncc(Cl)s2)c1 [Compound 1C-69] | 5 (Growth inhibition effect is equal to or greater than 90%, or complete withering is achieved) | 5 (Growth inhibition effect is equal to or greater than 90%, or complete withering is achieved) | 4 (Growth inhibition effect is equal to or greater than 70%, and less than 90%) | 5 (Growth inhibition effect is equal to or greater than 90%, or complete withering is achieved) | 5 (Growth inhibition effect is equal to or greater than 90%, or complete withering is achieved) | 
COCOc1cc(Cl)c(CS(=O)(=O)c2ncc(Cl)s2)c(Cl)c1 [Compound 1C-119] | 5 (Growth inhibition effect is equal to or greater than 90%, or complete withering is achieved) | 5 (Growth inhibition effect is equal to or greater than 90%, or complete withering is achieved) | 4 (Growth inhibition effect is equal to or greater than 70%, and less than 90%) | 5 (Growth inhibition effect is equal to or greater than 90%, or complete withering is achieved) | 5 (Growth inhibition effect is equal to or greater than 90%, or complete withering is achieved) | 
CCOc1c(C)cc(Cl)cc1CS(=O)(=O)c1ncc(Cl)s1 [Compound 1C-26] | 5 (Growth inhibition effect is equal to or greater than 90%, or complete withering is achieved) | 5 (Growth inhibition effect is equal to or greater than 90%, or complete withering is achieved) | 5 (Growth inhibition effect is equal to or greater than 90%, or complete withering is achieved) | 5 (Growth inhibition effect is equal to or greater than 90%, or complete withering is achieved) | 5 (Growth inhibition effect is equal to or greater than 90%, or complete withering is achieved) | 
CCOc1cc(C)ccc1CS(=O)(=O)c1ncc(Cl)s1 [Compound 1C-13] | 5 (Growth inhibition effect is equal to or greater than 90%, or complete withering is achieved) | 5 (Growth inhibition effect is equal to or greater than 90%, or complete withering is achieved) | 5 (Growth inhibition effect is equal to or greater than 90%, or complete withering is achieved) |  | 5 (Growth inhibition effect is equal to or greater than 90%, or complete withering is achieved) | 
CCOc1ccc(CS(=O)(=O)c2ncc(Cl)s2)c(Cl)c1 [Compound 1C-92] | 5 (Growth inhibition effect is equal to or greater than 90%, or complete withering is achieved) | 5 (Growth inhibition effect is equal to or greater than 90%, or complete withering is achieved) | 5 (Growth inhibition effect is equal to or greater than 90%, or complete withering is achieved) |  | 5 (Growth inhibition effect is equal to or greater than 90%, or complete withering is achieved) | 
